In experiment [1] the test system is Enterovirus A71. Briefly: Antiviral activity against human enterovirus 71 infected in ICR mouse assessed as reduction in viral infection realted clinical scores at 15 mg/kg, ip qd for 8 days dosed 2 hrs post infection. It is filed as functional, organism-based.
The test system of experiment [2] is Enterovirus A71. Kind of experiment: Antiviral activity against human enterovirus 71 infected in ICR mouse assessed as mouse recovery from infection in 15 mg/kg, ip qd for 8 days dosed 2 hrs post infection and measured at 14 days post infection. It is filed as functional, organism-based.
Experiment [3] concerns Mus musculus. Briefly: Immunoregulatory activity in […] mouse assessed as reduction in NK cells at 60 mg/kg, ip once daily for 8 days by flow cytometry. It counts as functional, organism-based.
Experiment [4] deals with Enterovirus A71. Briefly: Antiviral activity against human enterovirus 71 infected in ICR mouse assessed as increase in survival rate at 15 mg/kg, ip qd for 8 days dosed 2 hrs post infection and measured at 14 days post infection. It is filed as functional.
The test system of experiment [5] is Mus musculus. Kind of experiment: Immunoregulatory activity in […] mouse assessed as reduction in B cells at 60 mg/kg, ip once daily for 8 days by flow cytometry. It is filed as functional, organism-based.
In experiment [6] the test system is Enterovirus A71. Kind of experiment: Antiviral activity against human enterovirus 71 infected in ICR mouse assessed as increase in survival rate at 7.5 mg/kg, ip qd for 8 days dosed 2 hrs post infection and measured at 14 days post infection. It counts as functional.
For experiment [7], the system named is Enterovirus A71. Briefly: Antiviral activity against human enterovirus 71 infected in ICR mouse assessed as increase in survival rate at 30 mg/kg, ip qd for 8 days dosed 2 hrs post infection and measured at 14 days post infection. It counts as functional.
The subject of experiment [8] is Mus musculus. Briefly: Immunoregulatory activity in […] mouse assessed as increase in CD3+ T cells at 60 mg/kg, ip once daily for 8 days by flow cytometry. It is filed as functional, organism-based. The following applies: T-cell. On the technique in general: A flow cytometer gives signals particle by particle.
Experiment [9] deals with Enterovirus A71. Briefly: Antiviral activity against human enterovirus 71 infected in ICR mouse assessed as reduction in viral infection-induced phenotypic changes by measuring paralysis incidences at 15 mg/kg, ip qd for 8 days dosed 2 hrs post infection and measured at 8 days post infection. It counts as functional, organism-based.
For experiment [10], the system named is Mus musculus. Briefly: Immunoregulatory activity in […] mouse assessed as increase in CD8+ T cells at 60 mg/kg, ip once daily for 8 days by flow cytometry. It is filed as functional, organism-based. Particulars: T-cell.
For experiment [11], the system named is Enterovirus A71. Briefly: Antiviral activity against human enterovirus 71 infected in ICR mouse assessed as reduction in viral replications in muscle at 15 mg/kg, ip qd for 8 days dosed 2 hrs post infection and measured at 8 days post infection by qRT-PCR method. It counts as functional, organism-based.
Experiment [12] deals with Mus musculus. Briefly: Immunoregulatory activity in […] mouse assessed as increase in CD4+ T cells at 60 mg/kg, ip once daily for 8 days by flow cytometry. It counts as functional, organism-based. Particulars: T-cell.
For experiment [13], the system named is Enterovirus A71. Briefly: Antiviral activity against human enterovirus 71 infected in ICR mouse assessed as increase in survival rate at 15 mg/kg, ip qd for 8 days dosed 2 hrs post infection and measured at 14 days post infection relative to control. It counts as functional, organism-based.
Experiment [14] has as its system Mus musculus. Briefly: Immunoregulatory activity in […] mouse assessed as reduction in DC cells at 60 mg/kg, ip once daily for 8 days by flow cytometry. It is filed as functional, organism-based.
In experiment [15] the test system is Enterovirus A71. Kind of experiment: Antiviral activity against human enterovirus 71 infected in ICR mouse assessed as reduction in mouse body weight loss at 15 mg/kg, ip qd for 8 days dosed 2 hrs post infection. It is filed as functional, organism-based.
Experiment [16] deals with Enterovirus A71. Kind of experiment: Antiviral activity against human enterovirus 71 infected in ICR mouse assessed as reduction in viral infection-induced phenotypic changes by measuring ruffled hair incidences at 15 mg/kg, ip qd for 8 days dosed 2 hrs post infection and measured at 8 days post infection. It counts as functional, organism-based.
Experiment [17] relates to Mus musculus. Briefly: Immunoregulatory activity in […] mouse infected with human enterovirus 71 assessed as increase in CD3+ T cells at 15 mg/kg, ip once daily for 8 days by flow cytometry and measured at 8 days post infection. It counts as functional, organism-based. Particulars: T-cell.
Experiment [18] has as its system Mus musculus. Briefly: Immunoregulatory activity in […] mouse infected with human enterovirus 71 assessed as increase in CD4+ T cells at 15 mg/kg, ip once daily for 8 days by flow cytometry and measured at 8 days post infection. It counts as functional, organism-based. The following applies: T-cell.
The subject of experiment [19] is Mus musculus. Kind of experiment: Immunoregulatory activity in […] mouse infected with human enterovirus 71 assessed as increase in CD8+ T cells at 15 mg/kg, ip once daily for 8 days by flow cytometry and measured at 8 days post infection. The following applies: T-cell. It is filed as functional, organism-based.
In experiment [20] the test system is Enterovirus A71. Briefly: Antiviral activity against human enterovirus 71 infected in ICR mouse assessed as reduction in viral infection related clinical scores at 15 mg/kg, ip qd for 8 days dosed 2 hrs post infection and measured at 8 days post infection. It is filed as functional, organism-based.
Experiment [21] concerns Enterovirus A71. Kind of experiment: Antiviral activity against human enterovirus 71 infected in ICR mouse assessed as increase in survival rate at 50 mg/kg, ip qd for 8 days dosed 2 hrs post infection and measured at 14 days post infection. It counts as functional.

Structures are written as SMILES. Calls of active or inactive are those of the source. The calls are words filed in the database; no cut-off is given here.

For the compound `O=C1C=CC[C@@H]2[C@H]3CCC[N+]4([O-])CCC[C@@H](CN12)[C@@H]34` (stereo partly specified) [OXYSOPHOCARPINE], the result in the experiment with Enterovirus A71 [1], in the experiment with Enterovirus A71 [2], with Mus musculus [3], in the experiment with Mus musculus [5], in the experiment on Mus musculus [8] and in the experiment with Enterovirus A71 [9] was Active. Besides, the result in the experiment with Mus musculus [10], with Enterovirus A71 [11], in the experiment with Mus musculus [12], in the experiment on Enterovirus A71 [13], with Mus musculus [14] and in the experiment with Enterovirus A71 [15] was Active. Further, the result with Enterovirus A71 [16], in the experiment on Mus musculus [17], in the experiment on Mus musculus [18], in the experiment on Mus musculus [19] and with Enterovirus A71 [20] was Active. The Activity with Enterovirus A71 [4] was found to be 30%; in the experiment with Enterovirus A71 [6], 25%; in the experiment with Enterovirus A71 [7] it was 25%.

Take `O=C1CCC[C@@H]2[C@H]3CCC[N+]4([O-])CCC[C@@H](CN12)[C@@H]34` (stereo partly specified): the result in the experiment on Mus musculus [3], with Mus musculus [5], with Mus musculus [8], with Mus musculus [10], in the experiment with Mus musculus [12] and in the experiment with Enterovirus A71 [13] was Active. For the same compound, the outcome in the experiment with Mus musculus [14] was Active.

For the compound `O=C1C=CC[C@@H]2[C@H]3CCCN4CCC[C@@H](CN12)[C@@H]34`, the outcome in the experiment on Mus musculus [3], in the experiment on Mus musculus [5], in the experiment with Mus musculus [8], in the experiment with Mus musculus [10], with Mus musculus [12] and in the experiment with Enterovirus A71 [13] was Active. Also, the outcome in the experiment with Mus musculus [14] was Active.

Regarding `O=C1CCC[C@@H]2[C@H]3CCCN4CCC[C@@H](CN12)[C@@H]34`, the outcome in the experiment with Mus musculus [3], in the experiment on Mus musculus [5], in the experiment with Mus musculus [8], in the experiment on Mus musculus [10], in the experiment on Mus musculus [12] and in the experiment with Enterovirus A71 [13] was Active. For the same compound, the outcome in the experiment on Mus musculus [14] was Active.

As to `NC(=O)c1ncn([C@@H]2O[C@H](CO)[C@@H](O)[C@H]2O)n1` [RIBAVIRIN], the Activity in the experiment with Enterovirus A71 [21] was 15%.

For `O=c1cccc2n1C[C@@H]1CCCN3CCC[C@H]2[C@H]13`, the result in the experiment on Mus musculus [3], in the experiment with Mus musculus [5], in the experiment on Mus musculus [8], in the experiment with Mus musculus [10], in the experiment on Mus musculus [12] and in the experiment on Enterovirus A71 [13] was Active. Besides, the result in the experiment on Mus musculus [14] was Active.

Turning to `O=C1CCC[C@@H]2[C@H]3CCCN4CCC[C@H](CN12)[C@@H]34`, the outcome with Mus musculus [3], in the experiment on Mus musculus [5], in the experiment on Mus musculus [8], in the experiment on Mus musculus [10], with Mus musculus [12] and in the experiment on Enterovirus A71 [13] was Active. Also, the outcome with Mus musculus [14] was Active.
